Assay results as given in ChEMBL document CHEMBL4715724, “Novel 5-substituted-2-anilinoquinolines with 3-(morpholino or 4-methylpiperazin-1-yl)propoxy moiety as broad spectrum antiproliferative agents: Synthesis, cell based assays and kinase screening” (Bioorg Med Chem Lett, 2016).
Blank lines part the entries; values can stand above or below the molecule they belong to.

Experiments:
[1] = test system: HT-29; assay: cells; type: functional; details: Homo sapiens, time 48 hrs
Description: Growth inhibition of human HT-29 cells incubated for 48 hrs by sulforhodamine B assay

[2] = test system: A498; assay: cells; type: functional; details: Homo sapiens, time 48 hrs
Description: Growth inhibition of human A498 cells incubated for 48 hrs by sulforhodamine B assay

[3] = test system: Panel colon (Carcinoma cell lines); assay: cells; type: functional; details: Homo sapiens, time 48 hrs
Description: Growth inhibition of human Panel colon (Carcinoma cell lines) incubated for 48 hrs by sulforhodamine B assay

[4] = test system: Panel NCI-60 (60 carcinoma cell lines); assay: cells; type: functional; details: Homo sapiens, time 48 hrs
Description: Growth inhibition of human Panel NCI-60 (60 carcinoma cell lines) incubated for 48 hrs by sulforhodamine B assay

[5] = test system: Hs-578T; assay: cells; type: functional; details: Homo sapiens, time 48 hrs
Description: Growth inhibition of human Hs-578T cells incubated for 48 hrs by sulforhodamine B assay

[6] = test system: NCI-H522; assay: cells; type: functional; details: Homo sapiens, time 48 hrs
Description: Growth inhibition of human NCI-H522 cells incubated for 48 hrs by sulforhodamine B assay

[7] = test system: Panel breast (Carcinoma cell lines); assay: cells; type: functional; details: Homo sapiens, time 48 hrs
Description: Growth inhibition of human Panel breast (Carcinoma cell lines) incubated for 48 hrs by sulforhodamine B assay

[8] = test system: SK-MEL-28; assay: cells; type: functional; details: Homo sapiens, time 48 hrs
Description: Growth inhibition of human SK-MEL-28 cells incubated for 48 hrs by sulforhodamine B assay

[9] = test system: KM12; assay: cells; type: functional; details: Homo sapiens, time 48 hrs
Description: Growth inhibition of human KM12 cells incubated for 48 hrs by sulforhodamine B assay

[10] = test system: K562; assay: cells; type: functional; details: Homo sapiens, time 48 hrs
Description: Growth inhibition of human K562 cells incubated for 48 hrs by sulforhodamine B assay

[11] = test system: Panel prostate (Carcinoma cell lines); assay: cells; type: functional; details: Homo sapiens, time 48 hrs
Description: Growth inhibition of human Panel prostate (Carcinoma cell lines) incubated for 48 hrs by sulforhodamine B assay

[12] = test system: SF-295; assay: cells; type: functional; details: Homo sapiens, time 48 hrs
Description: Growth inhibition of human SF-295 cells incubated for 48 hrs by sulforhodamine B assay

[13] = test system: Panel melanoma (Carcinoma cell lines); assay: cells; type: functional; details: Homo sapiens, time 48 hrs
Description: Growth inhibition of human Panel melanoma (Carcinoma cell lines) incubated for 48 hrs by sulforhodamine B assay

[14] = test system: IGROV-1; assay: cells; type: functional; details: Homo sapiens, time 48 hrs
Description: Growth inhibition of human IGROV-1 cells incubated for 48 hrs by sulforhodamine B assay

[15] = test system: OVCAR-4; assay: cells; type: functional; details: Homo sapiens, time 48 hrs
Description: Growth inhibition of human OVCAR-4 cells incubated for 48 hrs by sulforhodamine B assay

[16] = test system: A549; assay: cells; type: functional; details: Homo sapiens, time 48 hrs
Description: Growth inhibition of human A549/ATCC cells incubated for 48 hrs by sulforhodamine B assay

[17] = test system: HCT-15; assay: cells; type: functional; details: Homo sapiens, time 48 hrs
Description: Growth inhibition of human HCT-15 cells incubated for 48 hrs by sulforhodamine B assay

[18] = test system: OVCAR-8; assay: cells; type: functional; details: Homo sapiens, time 48 hrs
Description: Growth inhibition of human OVCAR-8 cells incubated for 48 hrs by sulforhodamine B assay

[19] = test system: Panel leukemia (Carcinoma cell lines); assay: cells; type: functional; details: Homo sapiens, time 48 hrs
Description: Growth inhibition of human Panel leukemia (Carcinoma cell lines) incubated for 48 hrs by sulforhodamine B assay

[20] = test system: NCI-H226; assay: cells; type: functional; details: Homo sapiens, time 48 hrs
Description: Growth inhibition of human NCI-H226 cells incubated for 48 hrs by sulforhodamine B assay

[21] = test system: NCI-H23; assay: cells; type: functional; details: Homo sapiens, time 48 hrs
Description: Growth inhibition of human NCI-H23 cells incubated for 48 hrs by sulforhodamine B assay

[22] = test system: Panel ovarian (Carcinoma cell lines); assay: cells; type: functional; details: Homo sapiens, time 48 hrs
Description: Growth inhibition of human Panel ovarian (Carcinoma cell lines) incubated for 48 hrs by sulforhodamine B assay

[23] = test system: CCRF-CEM; assay: cells; type: functional; details: Homo sapiens, time 48 hrs
Description: Growth inhibition of human CCRF-CEM cells incubated for 48 hrs by sulforhodamine B assay

[24] = test system: MCF7; assay: cells; type: functional; details: Homo sapiens, time 48 hrs
Description: Growth inhibition of human MCF7 cells incubated for 48 hrs by sulforhodamine B assay

[25] = test system: Panel renal (Carcinoma cell lines); assay: cells; type: functional; details: Homo sapiens, time 48 hrs
Description: Growth inhibition of human Panel renal (Carcinoma cell lines) incubated for 48 hrs by sulforhodamine B assay

[26] = test system: NCI-H460; assay: cells; type: functional; details: Homo sapiens, time 48 hrs
Description: Growth inhibition of human NCI-H460 cells incubated for 48 hrs by sulforhodamine B assay

[27] = test system: U-251; assay: cells; type: functional; details: Homo sapiens, time 48 hrs
Description: Growth inhibition of human U-251 cells incubated for 48 hrs by sulforhodamine B assay

[28] = test system: Panel CNS (Carcinoma cell lines); assay: cells; type: functional; details: Homo sapiens, time 48 hrs
Description: Growth inhibition of human Panel CNS (Carcinoma cell lines) incubated for 48 hrs by sulforhodamine B assay

[29] = test system: MDA-MB-468; assay: cells; type: functional; details: Homo sapiens, time 48 hrs
Description: Growth inhibition of human MDA-MB-468 cells incubated for 48 hrs by sulforhodamine B assay

[30] = test system: NCI-H322M; assay: cells; type: functional; details: Homo sapiens, time 48 hrs
Description: Growth inhibition of human NCI-H322M cells incubated for 48 hrs by sulforhodamine B assay

[31] = test system: LOX IMVI; assay: cells; type: functional; details: Homo sapiens, time 48 hrs
Description: Growth inhibition of human LOX IMVI cells incubated for 48 hrs by sulforhodamine B assay

[32] = test system: RXF 393; assay: cells; type: functional; details: Homo sapiens, time 48 hrs
Description: Growth inhibition of human RXF 393 cells incubated for 48 hrs by sulforhodamine B assay

[33] = test system: MDA-MB-231; assay: cells; type: functional; details: Homo sapiens, time 48 hrs
Description: Growth inhibition of human MDA-MB-231/ATCC cells incubated for 48 hrs by sulforhodamine B assay

[34] = test system: HOP-62; assay: cells; type: functional; details: Homo sapiens, time 48 hrs
Description: Growth inhibition of human HOP-62 cells incubated for 48 hrs by sulforhodamine B assay

[35] = test system: PC-3; assay: cells; type: functional; details: Homo sapiens, time 48 hrs
Description: Growth inhibition of human PC-3 cells incubated for 48 hrs by sulforhodamine B assay

[36] = test system: OVCAR-3; assay: cells; type: functional; details: Homo sapiens, time 48 hrs
Description: Growth inhibition of human OVCAR-3 cells incubated for 48 hrs by sulforhodamine B assay

[37] = test system: SR; assay: cells; type: functional; details: Homo sapiens, time 48 hrs
Description: Growth inhibition of human SR cells incubated for 48 hrs by sulforhodamine B assay

[38] = test system: UO-31; assay: cells; type: functional; details: Homo sapiens, time 48 hrs
Description: Growth inhibition of human UO-31 cells incubated for 48 hrs by sulforhodamine B assay

[39] = test system: SNB-75; assay: cells; type: functional; details: Homo sapiens, time 48 hrs
Description: Growth inhibition of human SNB-75 cells incubated for 48 hrs by sulforhodamine B assay

[40] = test system: UACC-257; assay: cells; type: functional; details: Homo sapiens, time 48 hrs
Description: Growth inhibition of human UACC-257 cells incubated for 48 hrs by sulforhodamine B assay

[41] = test system: HCT-116; assay: cells; type: functional; details: Homo sapiens, time 48 hrs
Description: Growth inhibition of human HCT-116 cells incubated for 48 hrs by sulforhodamine B assay

[42] = test system: UACC-62; assay: cells; type: functional; details: Homo sapiens, time 48 hrs
Description: Growth inhibition of human UACC-62 cells incubated for 48 hrs by sulforhodamine B assay

[43] = test system: HOP-92; assay: cells; type: functional; details: Homo sapiens, time 48 hrs
Description: Growth inhibition of human HOP-92 cells incubated for 48 hrs by sulforhodamine B assay

[44] = cells; type: functional; details: Homo sapiens, Non-small cell lung cancer cell line; time 48 hrs
Description: Growth inhibition of human Non-small cell lung cancer cell line incubated for 48 hrs by sulforhodamine B assay

[45] = test system: TK-10; assay: cells; type: functional; details: Homo sapiens, time 48 hrs
Description: Growth inhibition of human TK-10 cells incubated for 48 hrs by sulforhodamine B assay

[46] = Cytotoxicity against human HFF-1 cells assessed as cell growth inhibition at 10 uM by MTT assay relative to control; type: cell-based; details: read-out: GI
[47] = Cytotoxicity against human HFF-1 cells assessed as cell growth inhibition at 1 uM by MTT assay relative to control; type: cell-based; details: read-out: GI
[48] = Cytotoxicity against human HFF-1 cells assessed as cell growth inhibition at 0.1 uM by MTT assay relative to control; type: cell-based; details: read-out: GI
[49] = Cytotoxicity against human HFF-1 cells assessed as cell growth inhibition by MTT assay; type: cell-based
[50] = test system: LOX IMVI; assay: Growth inhibition of human LOX IMVI cells assessed as growth percentage at 10 uM measured after 48 hrs by sulforhodamine B assay relative to control; type: functional; details: read-out: Activity
[51] = read-out: LC50 (the source's name)

GI50 [1]: 2.16 µM | GI50 [3]: 4.85 µM | GI50 [6]: 19.9 µM | GI50 [7]: 9.95 µM | GI50 [8]: 1.89 µM | GI50 [10]: 2.05 µM | GI50 [11]: 13.4 µM | GI50 [13]: 6.62 µM | GI50 [15]: 13.9 µM | GI50 [16]: 15.6 µM | GI50 [17]: 1.94 µM | GI50 [18]: 17.8 µM | GI50 [19]: 4.24 µM | GI50 [20]: 18.8 µM | GI50 [21]: 11.9 µM | GI50 [22]: 15.6 µM | GI50 [23]: 3.74 µM | GI50 [24]: 3.21 µM | GI50 [25]: 13.2 µM | GI50 [26]: 5.44 µM | GI50 [27]: 3.28 µM | GI50 [28]: 9.25 µM | GI50 [29]: 12.3 µM | GI50 [30]: 11 µM | GI50 [33]: 2.11 µM | GI50 [35]: 12.9 µM | GI50 [36]: 14.4 µM | GI50 [41]: 5.9 µM
Compound: CC(C)c1ccc(Nc2ccc3c(OCCCN4CCN(C)CC4)cccc3n2)cc1
GI50 [2]: 16.4 µM | GI50 [4]: 7.76 µM | GI50 [5]: 16.9 µM | GI50 [9]: 11.3 µM | GI50 [12]: 3.63 µM | GI50 [14]: 16.1 µM | GI50 [31]: 1.86 µM | GI50 [32]: 7.28 µM | GI50 [34]: 11.9 µM | GI50 [37]: 2.85 µM | GI50 [38]: 12.9 µM | GI50 [39]: 12.8 µM | GI50 [40]: 5.65 µM | GI50 [42]: 2.17 µM | GI50 [43]: 10.6 µM | GI50 [44]: 13.2 µM | GI50 [45]: 16.5 µM

Compound: CN1CCN(CCCOc2cccc3nc(Nc4cc(Cl)cc(Cl)c4)ccc23)CC1
inhibition at 10 µM [46]: 13.3% | GI50 [1]: 1.41 µM | GI50 [2]: 1.78 µM | GI50 [3]: 1.68 µM | TGI [3]: 3.19 µM | CC50 [3, 51]: 6.1 µM | GI50 [4]: 1.77 µM | TGI [4]: 3.72 µM | CC50 [4, 51]: 8.32 µM | GI50 [5]: 2.5 µM | GI50 [6]: 1.64 µM | GI50 [7]: 2.06 µM | TGI [7]: 5.67 µM | CC50 [7, 51]: 21.8 µM | inhibition at 1 µM [47]: 12% | GI50 [8]: 1.67 µM | GI50 [9]: 1.72 µM | GI50 [10]: 1.66 µM | GI50 [11]: 1.73 µM | LC50 (concentration killing 50% of cells) [11]: 5.96 µM | TGI [11]: 3.21 µM | GI50 [12]: 1.72 µM | GI50 [13]: 1.8 µM | LC50 [13]: 6.62 µM | TGI [13]: 3.43 µM | GI50 [14]: 1.68 µM | GI50 [15]: 2.55 µM | GI50 [16]: 1.98 µM | GI50 [17]: 1.42 µM | GI50 [18]: 1.94 µM | GI50 [19]: 1.8 µM | LC50 (50% lethal concentration) [19]: 100 µM | TGI [19]: 3.96 µM | inhibition at 0.1 µM [48]: 12.5% | GI50 [20]: 1.95 µM | GI50 [21]: 1.72 µM | GI50 [22]: 1.87 µM | LC50 [22]: 9.18 µM | TGI [22]: 4.1 µM | GI50 [23]: 1.78 µM | GI50 [24]: 1.38 µM | GI50 [25]: 2.07 µM | LC50 (lethal concentration 50%) [25]: 17.1 µM | TGI [25]: 5.56 µM | GI50 [26]: 1.84 µM | GI50 [27]: 1.72 µM | GI50 [49]: > 10 µM | GI50 [28]: 1.72 µM | TGI [28]: 3.26 µM | CC50 [28, 51]: 6.2 µM | GI50 [29]: 1.69 µM | GI50 [30]: 1.56 µM | GI50 [31]: 1.58 µM | GI50 [32]: 1.67 µM | GI50 [33]: 1.57 µM | GI50 [34]: 1.37 µM | GI50 [35]: 1.76 µM | GI50 [36]: 1.68 µM | GI50 [38]: 1.49 µM | GI50 [40]: 1.97 µM | GI50 [41]: 1.94 µM | GI50 [42]: 1.95 µM | GI50 [43]: 1.59 µM | GI50 [44]: 1.71 µM | LC50 (50% lethal concentration) [44]: 8.15 µM | TGI [44]: 3.51 µM | GI50 [45]: 1.74 µM | growth at 10 µM [50]: -5.27%

GI50 [1]: 1.53 µM | GI50 [3]: 1.97 µM | GI50 [6]: 1.72 µM | GI50 [7]: 2.48 µM | GI50 [8]: 1.82 µM | GI50 [10]: 1.91 µM | GI50 [11]: 2.85 µM | GI50 [13]: 2.01 µM | GI50 [15]: 3.75 µM | GI50 [16]: 2.96 µM | GI50 [17]: 1.4 µM | GI50 [18]: 4.03 µM | GI50 [19]: 2.18 µM | GI50 [20]: 2.76 µM | GI50 [21]: 2.21 µM | GI50 [22]: 3.07 µM | GI50 [23]: 2.48 µM | GI50 [24]: 1.68 µM | GI50 [25]: 2.42 µM | GI50 [26]: 3.07 µM | GI50 [27]: 1.85 µM | GI50 [28]: 2.16 µM | GI50 [29]: 2.08 µM | GI50 [30]: 2.53 µM | GI50 [33]: 1.53 µM | GI50 [35]: 2.08 µM | GI50 [36]: 3.08 µM | GI50 [41]: 2.76 µM
Compound: Fc1cc(Nc2ccc3c(OCCCN4CCOCC4)cccc3n2)ccc1Cl
GI50 [2]: 2.42 µM | GI50 [4]: 2.24 µM | GI50 [5]: 2.19 µM | GI50 [9]: 2.3 µM | GI50 [12]: 1.97 µM | GI50 [14]: 3.19 µM | GI50 [31]: 1.71 µM | GI50 [32]: 2.16 µM | GI50 [34]: 1.71 µM | GI50 [37]: 1.69 µM | GI50 [38]: 1.65 µM | GI50 [39]: 1.86 µM | GI50 [40]: 2.18 µM | GI50 [42]: 2.32 µM | GI50 [43]: 2.4 µM | GI50 [44]: 2.41 µM | GI50 [45]: 2.01 µM
